As a reminder, the IC50 is the point on the concentration scale where inhibition reaches its midpoint.

The target in this assay is T1, His-tagged recombinant human TrkA (Homo sapiens, UniProt P04629).
T1 construct: 6HIS tagged cytoplasmic domain from Invitrogen, Catalog No. PV3144; purchased Invitrogen PV3144
T1 sequence (P04629 440-796 limits assumed): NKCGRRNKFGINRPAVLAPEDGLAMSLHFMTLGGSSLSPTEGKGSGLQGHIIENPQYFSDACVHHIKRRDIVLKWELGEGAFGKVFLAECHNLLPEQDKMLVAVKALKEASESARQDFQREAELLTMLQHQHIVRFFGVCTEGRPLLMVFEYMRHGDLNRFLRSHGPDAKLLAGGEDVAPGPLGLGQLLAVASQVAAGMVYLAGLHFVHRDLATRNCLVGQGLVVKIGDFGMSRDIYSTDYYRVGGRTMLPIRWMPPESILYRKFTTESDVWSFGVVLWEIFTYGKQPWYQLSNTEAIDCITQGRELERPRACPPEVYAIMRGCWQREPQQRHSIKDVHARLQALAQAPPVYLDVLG
The experiment in a line: TrkA Kinase Binding Assay (LanthaScreen Eu). The note with it: averaged IC50; TR-FRET binding, 60 min, 22° C.; read-out: TrkA Enzyme IC50. As to the method: TrkA binding activity was determined in a TrkA LanthaScreen™ Eu Kinase Binding Assay. 5 nM His-tagged recombinant human TrkA (6HIS tagged cytoplasmic domain from Invitrogen, Catalog No. PV3144) was incubated with 4 nM Alexa-Fluor® Tracer 236 (Invitrogen Cat. No. PV5592), 2 nM biotinylated anti-His (Invitrogen Cat. No. PV6090), and 2 nM europium-labeled Streptavidin (Invitrogen Cat. No. PV5899), in buffer (25 mM MOPS, pH 7.5, 5 mM MgCl2, 0.005% Triton X-100). Three fold serial dilutions of compounds of the invention in DMSO were added to a final percentage of 2% DMSO. After 60-minute incubation at 22° C., the reaction was measured using the EnVision mutlimode plate reader (PerkinElmer) via TR-FRET dual wavelength detection at […]. The percent of control was calculated using a ratiometric emission factor. The IC50 values were determined by fitting a four parameter model to the percent of control data.
Table A provides averaged IC50 values for compounds of the invention when tested in the assay of Example A, where A represents an averaged IC50 value <100 nM; B represents an averaged IC50 value from 100 to 1,000 nM; and C represents an average 1050 value above 1000 nM.
With `Cc1c(-c2cnn(C)c2)nn(-c2ccccc2)c1NC(=O)NCC1CCCc2ccccc21` (stereo not drawn) [Example 44, 1-(1′,4-dimethyl-1-phenyl-1H,1′H-3,4′-bipyrazol-5-yl)-3-((1,2,3,4-tetrahydronaphthalen-1-yl)methyl)urea], the IC50 was less than 100 nM.
Turning to `O=C(Nc1c2c(nn1-c1ccccc1)CCC2)NC(Cc1ccccc1Cl)c1ccccc1` (stereo not drawn) [Example 45, 1-(2-(2-chlorophenyl)-1-phenylethyl)-3-(2-phenyl-2,4,5,6-tetrahydrocyclopenta[c]pyrazol-3-yl)urea], the half-maximal inhibitory concentration (IC50) is 100 to 1000 nM.
For `O=C(Nc1c2c(nn1-c1ccccc1)CCC2)NC(Cc1ccccc1)Cc1ccccc1Cl` (stereo not drawn) [Example 46, 1-(1-(2-chlorophenyl)-3-phenylpropan-2-yl)-3-(2-phenyl-2,4,5,6-tetrahydrocyclopenta[c]pyrazol-3-yl)urea], the IC50 is less than 100 nM.
In the case of `O=C(Nc1c2c(nn1-c1ccccc1)CCC2)NC(Cc1ccccc1)Cc1ccc(F)c(F)c1` (stereo not drawn) [Example 47, 1-(1-(3,4-difluorophenyl)-3-phenylpropan-2-yl)-3-(2-phenyl-2,4,5,6-tetrahydrocyclopenta[c]pyrazol-3-yl)urea], the IC50 is less than 100 nM.
`COc1ccccc1CC(Cc1ccccc1)NC(=O)Nc1c2c(nn1-c1ccccc1)CCC2` (stereo not drawn) [Example 48, 1-(1-(2-methoxyphenyl)-3-phenylpropan-2-yl)-3-(2-phenyl-2,4,5,6-tetrahydrocyclopenta[c]pyrazol-3-yl)urea]: the IC50 was in the range of 100 to 1000 nM.
Take `O=C(Nc1c2c(nn1-c1ccccc1)CCC2)NC(CCC(F)(F)F)Cc1ccccc1` (stereo not drawn) [Example 49, 1-(2-phenyl-2,4,5,6-tetrahydrocyclopenta[c]pyrazol-3-yl)-3-(5,5,5-trifluoro-1-phenylpentan-2-yl)urea]: the concentration for half-maximal inhibition (IC50) lay within 100 to 1000 nM.
For `Cc1c(-c2cnn(C)c2)nn(-c2ccccc2)c1NC(=O)NCc1ccccc1-c1ccccc1` [Example 50, 1-([1,1′-biphenyl]-2-ylmethyl)-3-(1′,4-dimethyl-1-phenyl-1H,1′H-[3,4′-bipyrazol]-5-yl)urea] the value was 100 to 1000 nM; for `COCc1ccc(OC(F)F)c(CNC(=O)Nc2c(C)c(-c3cncc(OC)c3)nn2-c2ccccc2)c1` [Example 52, 1-(2-(difluoromethoxy)-5-(methoxymethyl)benzyl)-3-(3-(5-methoxypyridin-3-yl)-4-methyl-1-phenyl-1H-pyrazol-5-yl)urea], less than 100 nM.
For the molecule `COCc1ccc(OC(F)(F)F)c(CNC(=O)Nc2c(C)c(-c3ccc(OC)nc3)nn2-c2ccccc2)c1` [Example 53, 1-(5-(methoxymethyl)-2-(trifluoromethoxy)benzyl)-3-(3-(6-methoxypyridin-3-yl)-4-methyl-1-phenyl-1H-pyrazol-5-yl)urea], the 50% inhibitory concentration (IC50) is less than 100 nM.
Take `COCc1ccc(OC(F)(F)F)c(CNC(=O)Nc2c(C)c(-c3cncc(OC)c3)nn2-c2ccccc2)c1` [Example 54, 1-(5-(methoxymethyl)-2-(trifluoromethoxy)benzyl)-3-(3-(5-methoxypyridin-3-yl)-4-methyl-1-phenyl-1H-pyrazol-5-yl)urea]: the IC50 was less than 100 nM.
For the molecule `CNC(=O)c1nn(-c2ccccc2)c(NC(=O)NCc2cc(COC)ccc2OC(F)(F)F)c1C` [Example 55, 5-(3-(5-(methoxymethyl)-2-(trifluoromethoxy)benzyl)ureido)-N,4-dimethyl-1-phenyl-1H-pyrazole-3-carboxamide], the IC50 was less than 100 nM.
For `CNC(=O)c1nn(-c2ccccc2)c(NC(=O)NCc2cc(COC)ccc2OC(F)F)c1C` [Example 56, 5-(3-(2-(difluoromethoxy)-5-(methoxymethyl)benzyl)ureido)-N,4-dimethyl-1-phenyl-1H-pyrazole-3-carboxamide], the IC50 was less than 100 nM.
For the molecule `COCc1ccc(OC(F)(F)F)c(CNC(=O)Nc2c3c(nn2-c2ccccc2)CSC3)c1` [Example 57, 1-(5-(methoxymethyl)-2-(trifluoromethoxy)benzyl)-3-(2-phenyl-4,6-dihydro-2H-thieno[3,4-c]pyrazol-3-yl)urea], the IC50 is less than 100 nM.
Consider `COCc1ccc(OC(F)(F)F)c(CNC(=O)Nc2c3c(nn2-c2ccccc2)CS(=O)(=O)C3)c1` [Example 58, 1-(5,5-dioxido-2-phenyl-4,6-dihydro-2H-thieno[3,4-c]pyrazol-3-yl)-3-(5-(methoxymethyl)-2-(trifluoromethoxy)benzyl)urea], for which the IC50 was less than 100 nM.
Take `COCc1ccc(OC(F)(F)F)c(CNC(=O)Nc2c(C)c(-c3cnc(OC)nc3)nn2-c2ccccc2)c1` [Example 59, 1-(5-(methoxymethyl)-2-(trifluoromethoxy)benzyl)-3-(3-(2-methoxypyrimidin-5-yl)-4-methyl-1-phenyl-1H-pyrazol-5-yl)urea]: the IC50 was less than 100 nM.
For the molecule `COCc1ccc(OC(F)(F)F)c(CNC(=O)Nc2c(C)c(OCCF)nn2-c2ccccc2)c1` [Example 60, 1-(3-(2-fluoroethoxy)-4-methyl-1-phenyl-1H-pyrazol-5-yl)-3-(5-(methoxymethyl)-2-(trifluoromethoxy)benzyl)urea], the IC50 was less than 100 nM.
Consider `COCc1ccc(OC(F)(F)F)c(CNC(=O)Nc2c(C)c(OCc3nnc(C)o3)nn2-c2ccccc2)c1` [Example 61], for which the IC50 was less than 100 nM.
Consider `COCc1ccc(OC(F)F)c(CNC(=O)Nc2c(C)c(-c3cnc(OC)nc3)nn2-c2ccccc2)c1` [Example 62, 1-(2-(difluoromethoxy)-5-(methoxymethyl)benzyl)-3-(3-(2-methoxypyrimidin-5-yl)-4-methyl-1-phenyl-1H-pyrazol-5-yl)urea], for which the IC50 is less than 100 nM.
As to `COCc1ccc(OC(F)(F)F)c(CNC(=O)Nc2c(C)c(OCCO)nn2-c2ccccc2)c1` [Example 63, 1-(3-(2-hydroxyethoxy)-4-methyl-1-phenyl-1H-pyrazol-5-yl)-3-(5-(methoxymethyl)-2-(trifluoromethoxy)benzyl)urea], the half-maximal inhibitory concentration (IC50) was less than 100 nM.
Consider `CNC(=O)c1nn(-c2ccccc2)c(NC(=O)NCc2cc(Br)ccc2OC(F)(F)F)c1C` [Example 64, 5-(3-(5-bromo-2-(trifluoromethoxy)benzyl)ureido)-N,4-dimethyl-1-phenyl-1H-pyrazole-3-carboxamide], for which the IC50 was less than 100 nM.
`COCc1ccc(OC(F)(F)F)c(CNC(=O)Nc2c(C)c(OC[C@H](O)CO)nn2-c2ccccc2)c1` [Example 65, (R)-1-(3-(2,3-dihydroxypropoxy)-4-methyl-1-phenyl-1H-pyrazol-5-yl)-3-(5-(methoxymethyl)-2-(trifluoromethoxy)benzyl)urea]: the IC50 is less than 100 nM.
`COCc1ccc(OC(F)(F)F)c(CNC(=O)Nc2c(C)c(C3CCNCC3)nn2-c2ccccc2)c1` [Example 66, 1-(5-(methoxymethyl)-2-(trifluoromethoxy)benzyl)-3-(4-methyl-1-phenyl-3-(piperidin-4-yl)-1H-pyrazol-5-yl)urea]: the IC50 was less than 100 nM.
For the molecule `COCc1ccc(OC(F)(F)F)c(CNC(=O)Nc2c(C)c(OCC3CCNCC3)nn2-c2ccccc2)c1` [Example 67, 1-(5-(methoxymethyl)-2-(trifluoromethoxy)benzyl)-3-(4-methyl-1-phenyl-3-(piperidin-4-ylmethoxy)-1H-pyrazol-5-yl)urea], the IC50 is less than 100 nM.
As to `CNC(=O)c1nn(-c2ccccc2)c(NC(=O)NCc2cc(COC)ccc2OCC(F)(F)F)c1C` [Example 68, 5-(3-(5-(methoxymethyl)-2-(2,2,2-trifluoroethoxy)benzyl)ureido)-N,4-dimethyl-1-phenyl-1H-pyrazole-3-carboxamide], the IC50 lay in the range of 100 to 1000 nM.
Take `COCc1ccc(OCC(F)(F)F)c(CNC(=O)Nc2c(C)c(-c3cnc(OC)nc3)nn2-c2ccccc2)c1` [Example 69, 1-(5-(methoxymethyl)-2-(2,2,2-trifluoroethoxy)benzyl)-3-(3-(2-methoxypyrimidin-5-yl)-4-methyl-1-phenyl-1H-pyrazol-5-yl)urea]: the IC50 was less than 100 nM.
Take `COCc1ccc(OC(F)(F)F)c(CNC(=O)Nc2c(C)c(OCC3(F)CCNCC3)nn2-c2ccccc2)c1` [Example 70, 1-(3-((4-fluoropiperidin-4-yl)methoxy)-4-methyl-1-phenyl-1H-pyrazol-5-yl)-3-(5-(methoxymethyl)-2-(trifluoromethoxy)benzyl)urea]: the IC50 is less than 100 nM.
Take `COCc1ccc(OC(F)(F)F)c(CNC(=O)Nc2c(C)c(OCC3CCNC3)nn2-c2ccccc2)c1` (stereo not drawn) [Example 71]: the IC50 was less than 100 nM.
In the case of `COCc1ccc(OC(F)(F)F)c(CNC(=O)Nc2c(C)c(OCC3CNC3)nn2-c2ccccc2)c1` [Example 72, 1-(3-(azetidin-3-ylmethoxy)-4-methyl-1-phenyl-1H-pyrazol-5-yl)-3-(5-(methoxymethyl)-2-(trifluoromethoxy)benzyl)urea], the IC50 is less than 100 nM.
For `COCc1ccc(OC(F)(F)F)c(CNC(=O)Nc2c(C)c(OCC3(F)CCNC3)nn2-c2ccccc2)c1` (stereo not drawn) [Example 73, 1-(3-((3-fluoropyrrolidin-3-yl)methoxy)-4-methyl-1-phenyl-1H-pyrazol-5-yl)-3-(5-(methoxymethyl)-2-(trifluoromethoxy)benzyl)urea] the value was less than 100 nM; for `COCc1ccc(OC(F)(F)F)c(CNC(=O)Nc2c(C)c(-c3cc(C)c(=O)n(C)c3)nn2-c2ccccc2)c1` [Example 74, 1-(3-(1,5-dimethyl-6-oxo-1,6-dihydropyridin-3-yl)-4-methyl-1-phenyl-1H-pyrazol-5-yl)-3-(5-(methoxymethyl)-2-(trifluoromethoxy)benzyl)urea], less than 100 nM.

The values are drawn from patent publication US9969694B2, “N-(arylalkyl)-N′-pyrazolyl-urea, thiourea, guanidine and cyanoguanidine compounds as TrkA kinase inhibitors” (Array BioPharma Inc., priority 2012, dated 2018).
